In patent US10689429B2, “Double-acylated GLP-1 compounds” (Novo Nordisk A/S, priority 2014, dated 2020):
Where two headings read alike, the source gives them in different places. *1 amine or outer side, *2 acyl side, *3 side chain or, on linkers, in order; H or OH if unused. Where a SMILES comes first, the peptide text is derived from it. Where no end group is shown, it is not given here. Side-chain parts run from the residue outwards. [ ]: non-standard residue; d: D form. The star is where a group is joined. Undecanoyl(11-OPh(4-COOH)) = O=C(O)c1ccc(OCCCCCCCCCCC(=O)*)cc1; Decanoyl(10-O(3-COOH-Ph)) = O=C(O)c1cccc(OCCCCCCCCCC(=O)*)c1; γGlu = O=C(O)[C@H](CCC(=O)[*:2])N[*:1]; AEEA = NCCOCCOCC(=O)O; Aib = CC(C)(N)C(=O)O

Experiments:
human GLP-1 receptor [1] = target: T1, human GLP-1 receptor (Homo sapiens, UniProt P43220); assay: In vitro potency, CRE luciferase reporter gene assay in BHK cells expressing the human GLP-1 receptor; assay type: cell-based; conditions: average of duplicates;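 further: firefly luciferase luminescence read after 3 h incubation at 37 °C, compounds tested in an eight-point series from 0.01 pM to 100 nM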
T1 construct: expressed in transfected cells; host or cells: membranes from BHK cells, parent line BHKTS13, clone FCW467-12A
Protocol: The in vitro potency is the measure of human GLP-1 receptor activation in a whole cell assay.
In vitro potency was determined by measuring the response of the human GLP-1 receptor in a reporter gene assay. The assay was performed in a stably transfected BHK cell line that expresses the human GLP-1 receptor and contains the DNA for the cAMP response element (CRE) coupled to a promoter and the gene for firefly luciferase (CRE luciferase). When the human GLP-1 receptor is activated it results in the production of cAMP, which in turn results in the luciferase protein being expressed. When assay incubation is completed the luciferase substrate (luciferin) is added and the enzyme converts luciferin to oxyluciferin to produce bioluminescence. The luminescence is measured as the readout for the assay.
An increase of the in vitro potency, EC50 value, in the presence of serum albumin would indicate an affinity to serum albumin and represents a method to predict a protracted pharmacokinetic profile of the test substance in animal models.
The cells were cultured at 5% CO2 in Cell Culture Medium. They were aliquoted and stored in liquid nitrogen. Before each assay an aliquot is taken up and washed twice in PBS before being suspended at the desired concentration in the assay specific buffer. For 96-well plates the suspension was made to give a final concentration of 5×10^3 cells/well.
Assay Medium consisted of DMEM w/o phenol red, 10 mM Hepes and 1× Glutamax. The 1% Assay Buffer consisted of 2% ovalbumin, 0.2% Pluronic F-68 and 2% HSA in Assay Medium. The 0% Assay Buffer consisted of 2% ovalbumin and 0.2% Pluronic F-68 in Assay Medium.
1) Cell stocks were thawed in a 37° C. water bath.
2) Cells were washed three times in PBS.
3) The cells were counted and adjusted to 5×10^3 cells/50 μl (1×10^5 cells/ml) in Assay Medium. A 50 μl aliquot of cells was transferred to each well in the assay plate.
4) Stocks of the test compounds and reference compounds were diluted to a concentration of 0.2 pM in 0% Assay Buffer for the 0% HSA CRE luciferase assay and 1% Assay Buffer for the 1% HSA CRE luciferase assay. […] Compounds were tested at the following final concentrations: 1×10^−7 M, 1×10^−8 M; 1×10^−9 M, 1×10^−10 M, 1×10^−11 M, 1×10^−12 M, 1×10^−13 M, and 1×10^−14 M. 6) The assay plate was incubated for 3 h in a 5% CO2 incubator at 37° C. […] 8) A 100 μl aliquot of steadylite plus reagent was added to each well of the assay plate (reagent was light sensitive). 9) Each assay plate was covered with aluminum foil to protect it from light and shaken for 30 min at room temperature. 10) Each assay plate was read in a Packard TopCount NXT instrument. Calculations and Results
The data from the TopCount instrument were transferred to GraphPad Prism software. The software performs a non-linear regression (log(agonist) vs response).
A minimum of two replicates was measured for each sample on separate assay plates. The reported values are averages of the duplicates. For some examples more than one assay was run and in this case the data reported are the averages of the averaged duplicates.

human GLP-1 receptor [2] = target: T2, human GLP-1 receptor (human, UniProt P43220); assay: displacement of [125I]-GLP-1-(7-36)NH2 from membranes with human GLP-1 receptor, SPA, high HSA (2.0%)
Protocol: Each derivative is added in a series of concentrations to isolated membranes containing the human GLP-1 receptor and displacement of the labelled ligand is monitored. The receptor binding is reported as the concentration at which half of the labelled ligand is displaced from the receptor, the $IC50$ value.
For the receptor binding assay in the presence of low HSA (0.001%) 50 μl of the assay buffer was added to each well of an assay plate. […] For the receptor binding assay in the presence of high HSA (2.0%) 50 μl of the 8% albumin stock was added to each well of an assay plate. […] Cell membrane aliquots were thawed and diluted to their working concentration. Fifty μl were added to each well in the assay plate. […] WGA SPA beads were suspended in assay buffer at 20 mg/ml. The suspension was diluted to 10 mg/ml in assay buffer just prior to addition to the assay plate. Fifty μl were added to each well in the assay plate. […] A 25 μl aliquot was reserved for measuring total counts/well. […] The assay plate was incubated for 2 h at 30° C. […] The assay plate was centrifuged for 10 min. […] The assay plate was read in a Packard TopCount NXT instrument.

human GLP-1 receptor [3] = target: T2, human GLP-1 receptor
Target sequence in this assay (P43220 24-463): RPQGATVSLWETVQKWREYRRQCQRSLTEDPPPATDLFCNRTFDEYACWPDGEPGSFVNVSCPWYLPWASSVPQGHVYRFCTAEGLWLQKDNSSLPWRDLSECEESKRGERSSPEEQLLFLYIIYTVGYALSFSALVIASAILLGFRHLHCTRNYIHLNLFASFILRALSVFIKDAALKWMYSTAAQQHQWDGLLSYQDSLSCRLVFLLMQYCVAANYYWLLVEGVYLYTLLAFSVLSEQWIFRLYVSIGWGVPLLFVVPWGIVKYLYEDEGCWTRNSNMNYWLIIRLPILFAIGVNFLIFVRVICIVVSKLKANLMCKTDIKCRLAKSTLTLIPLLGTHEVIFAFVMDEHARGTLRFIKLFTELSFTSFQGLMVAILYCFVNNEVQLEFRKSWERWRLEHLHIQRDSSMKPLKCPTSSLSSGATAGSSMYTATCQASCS

[4] = EC50/pM (1% HSA), 1% HSA final assay concentration

T1 sequence (P43220 24-463): as above

| Molecule | EC50 (human GLP-1 receptor [1]; EC50/pM (0% HSA), 0% HSA) [pM] | EC50 (human GLP-1 receptor [1]; [4]) [pM] | further results |
| --- | --- | --- | --- |
| CC[C@H](C)[C@H](NC(=O)[C@H](Cc1ccccc1)NC(=O)[C@H](CCC(=O)O)NC(=O)[C@H](CCCNC(=N)N)NC(=O)[C@H](C)NC(=O)[C@H](C)NC(=O)[C@H](CCC(N)=O)NC(=O)[C@H](CCC(=O)O)NC(=O)[C@H](CCC(=O)O)NC(=O)[C@H](CC(C)C)NC(=O)[C@H](Cc1ccc(O)cc1)NC(=O)[C@H](CO)NC(=O)[C@H](CO)NC(=O)[C@@H](NC(=O)[C@H](CC(=O)O)NC(=O)[C@H](CO)NC(=O)[C@@H](NC(=O)[C@H](Cc1ccccc1)NC(=O)[C@@H](NC(=O)CNC(=O)[C@H](CCC(=O)O)NC(=O)C(C)(C)NC(=O)[C@@H](N)Cc1c[nH]cn1)[C@@H](C)O)[C@@H](C)O)C(C)C)C(=O)N[C@@H](C)C(=O)N[C@@H](Cc1c[nH]c2ccccc12)C(=O)N[C@@H](CC(C)C)C(=O)N[C@H](C(=O)N[C@@H](CCCNC(=N)N)C(=O)NCC(=O)N[C@@H](CCCCNC(=O)COCCOCCNC(=O)COCCOCCNC(=O)COCCOCCNC(=O)COCCOCCNC(=O)CC[C@H](NC(=O)CCCCCCCCCOc1cccc(C(=O)O)c1)C(=O)O)C(=O)N[C@@H](CCCCNC(=O)COCCOCCNC(=O)COCCOCCNC(=O)COCCOCCNC(=O)COCCOCCNC(=O)CC[C@H](NC(=O)CCCCCCCCCOc1cccc(C(=O)O)c1)C(=O)O)C(=O)O)C(C)C [Example 22] | 1.8 | 7.7 | – |
| CC[C@H](C)[C@H](NC(=O)[C@H](Cc1ccccc1)NC(=O)[C@H](CCC(=O)O)NC(=O)[C@H](CCCNC(=N)N)NC(=O)[C@H](C)NC(=O)[C@H](C)NC(=O)[C@H](CCC(N)=O)NC(=O)[C@H](CCC(=O)O)NC(=O)[C@H](CCC(=O)O)NC(=O)[C@H](CC(C)C)NC(=O)[C@H](Cc1ccc(O)cc1)NC(=O)[C@H](CO)NC(=O)[C@H](CO)NC(=O)[C@@H](NC(=O)[C@H](CC(=O)O)NC(=O)[C@H](CO)NC(=O)[C@@H](NC(=O)[C@H](Cc1ccccc1)NC(=O)[C@@H](NC(=O)CNC(=O)[C@H](CCC(=O)O)NC(=O)C(C)(C)NC(=O)[C@@H](N)Cc1c[nH]cn1)[C@@H](C)O)[C@@H](C)O)C(C)C)C(=O)N[C@@H](C)C(=O)N[C@@H](Cc1c[nH]c2ccccc12)C(=O)N[C@@H](CC(C)C)C(=O)N[C@H](C(=O)N[C@@H](CCCNC(=N)N)C(=O)NCC(=O)N[C@@H](CCCCNC(=O)COCCOCCNC(=O)COCCOCCNC(=O)CC[C@H](NC(=O)CC[C@H](NC(=O)CCCCCCCCCCCCC(=O)O)C(=O)O)C(=O)O)C(=O)N[C@@H](CCCCNC(=O)COCCOCCNC(=O)COCCOCCNC(=O)CC[C@H](NC(=O)CC[C@H](NC(=O)CCCCCCCCCCCCC(=O)O)C(=O)O)C(=O)O)C(=O)O)C(C)C [Example 21] | – | 13 | EC50 (human GLP-1 receptor [1]; 0% HSA, read-out: EC50/pM (0% HSA)): 5.6 pM |
| CC[C@H](C)[C@H](NC(=O)[C@H](Cc1ccccc1)NC(=O)[C@H](CCC(=O)O)NC(=O)[C@H](CCCNC(=N)N)NC(=O)[C@H](C)NC(=O)[C@H](C)NC(=O)[C@H](CCC(N)=O)NC(=O)[C@H](CCC(=O)O)NC(=O)[C@H](CCC(=O)O)NC(=O)[C@H](CC(C)C)NC(=O)[C@H](Cc1ccc(O)cc1)NC(=O)[C@H](CO)NC(=O)[C@H](CO)NC(=O)[C@@H](NC(=O)[C@H](CC(=O)O)NC(=O)[C@H](CO)NC(=O)[C@@H](NC(=O)[C@H](Cc1ccccc1)NC(=O)[C@@H](NC(=O)CNC(=O)[C@H](CCC(=O)O)NC(=O)C(C)(C)NC(=O)[C@@H](N)Cc1c[nH]cn1)[C@@H](C)O)[C@@H](C)O)C(C)C)C(=O)N[C@@H](C)C(=O)N[C@@H](Cc1c[nH]c2ccccc12)C(=O)N[C@@H](CC(C)C)C(=O)N[C@H](C(=O)N[C@@H](CCCNC(=N)N)C(=O)NCC(=O)N[C@@H](CCCCNC(=O)COCCOCCNC(=O)COCCOCCNC(=O)CC[C@H](NC(=O)CC[C@H](NC(=O)CCCCCCCCCCOc1ccc(C(=O)O)cc1)C(=O)O)C(=O)O)C(=O)N[C@@H](CCCCNC(=O)COCCOCCNC(=O)COCCOCCNC(=O)CC[C@H](NC(=O)CC[C@H](NC(=O)CCCCCCCCCCOc1ccc(C(=O)O)cc1)C(=O)O)C(=O)O)C(=O)O)C(C)C [Example 18] | – | 29 | – |
| CC[C@H](C)[C@H](NC(=O)[C@H](Cc1ccccc1)NC(=O)[C@H](CCC(=O)O)NC(=O)[C@H](CCCNC(=N)N)NC(=O)[C@H](C)NC(=O)[C@H](C)NC(=O)[C@H](CCC(N)=O)NC(=O)[C@H](CCC(=O)O)NC(=O)[C@H](CCC(=O)O)NC(=O)[C@H](CC(C)C)NC(=O)[C@H](Cc1ccc(O)cc1)NC(=O)[C@H](CO)NC(=O)[C@H](CO)NC(=O)[C@@H](NC(=O)[C@H](CC(=O)O)NC(=O)[C@H](CO)NC(=O)[C@@H](NC(=O)[C@H](Cc1ccccc1)NC(=O)[C@@H](NC(=O)CNC(=O)[C@H](CCC(=O)O)NC(=O)C(C)(C)NC(=O)[C@@H](N)Cc1c[nH]cn1)[C@@H](C)O)[C@@H](C)O)C(C)C)C(=O)N[C@@H](CCC(=O)O)C(=O)N[C@@H](Cc1c[nH]c2ccccc12)C(=O)N[C@@H](CC(C)C)C(=O)N[C@H](C(=O)N[C@@H](CCCNC(=N)N)C(=O)NCC(=O)N[C@@H](CCCCNC(=O)COCCOCCNC(=O)COCCOCCNC(=O)CC[C@H](NC(=O)CCCCCCCCCOc1cccc(C(=O)O)c1)C(=O)O)C(=O)N[C@@H](CCCCNC(=O)COCCOCCNC(=O)COCCOCCNC(=O)CC[C@H](NC(=O)CCCCCCCCCOc1cccc(C(=O)O)c1)C(=O)O)C(=O)O)C(C)C [Example 27, N{Epsilon-36}-[2-[2-[2-[[2-[2-[2-[[(4S)-4-carboxy-4-[10-(3-carboxyphenoxy)decanoylamino]butanoyl]amino]ethoxy]ethoxy]acetyl]amino]ethoxy]ethoxy]acetyl], N{Epsilon-37}-[2-[2-[2-[[2-[2-[2-[[(4S)-4-carboxy-4-[10-(3-carboxyphenoxy)decanoylamino]butanoyl]amino]ethoxy]ethoxy]acetyl]amino]ethoxy]ethoxy]acetyl]-[Aib8,Glu22,Arg26,Glu30,Arg34,Lys36,Lys37]-GLP-1-(7-37)-peptide] | 13 | 105 | – |
| CC[C@H](C)[C@H](NC(=O)[C@H](Cc1ccccc1)NC(=O)[C@H](CCC(=O)O)NC(=O)[C@H](CCCNC(=N)N)NC(=O)[C@H](C)NC(=O)[C@H](C)NC(=O)[C@H](CCC(N)=O)NC(=O)[C@H](CCC(=O)O)NC(=O)[C@H](CCC(=O)O)NC(=O)[C@H](CC(C)C)NC(=O)[C@H](Cc1ccc(O)cc1)NC(=O)[C@H](CO)NC(=O)[C@H](CO)NC(=O)[C@@H](NC(=O)[C@H](CC(=O)O)NC(=O)[C@H](CO)NC(=O)[C@@H](NC(=O)[C@H](Cc1ccccc1)NC(=O)[C@@H](NC(=O)CNC(=O)[C@H](CCC(=O)O)NC(=O)CNC(=O)[C@@H](N)Cc1c[nH]cn1)[C@@H](C)O)[C@@H](C)O)C(C)C)C(=O)N[C@@H](C)C(=O)N[C@@H](Cc1c[nH]c2ccccc12)C(=O)N[C@@H](CC(C)C)C(=O)N[C@H](C(=O)N[C@@H](CCCNC(=N)N)C(=O)NCC(=O)N[C@@H](CCCCNC(=O)COCCOCCNC(=O)COCCOCCNC(=O)CC[C@H](NC(=O)CCCCCCCCCCOc1ccc(C(=O)O)cc1)C(=O)O)C(=O)N[C@@H](CCCCNC(=O)COCCOCCNC(=O)COCCOCCNC(=O)CC[C@H](NC(=O)CCCCCCCCCCOc1ccc(C(=O)O)cc1)C(=O)O)C(=O)O)C(C)C [Example 17, N{Epsilon-36}-[2-[2-[2-[[2-[2-[2-[[(4S)-4-carboxy-4-[11-(4-carboxyphenoxy)undecanoylamino]butanoyl]amino]ethoxy]ethoxy]acetyl]amino]ethoxy]ethoxy]acetyl], N{Epsilon-37}-[2-[2-[2-[[2-[2-[2-[[(4S)-4-carboxy-4-[11-(4-carboxyphenoxy)undecanoylamino]butanoyl]amino]ethoxy]ethoxy]acetyl]amino]ethoxy]ethoxy]acetyl]-[Gly8,Glu22,Arg26,Arg34,Lys36,Lys37]-GLP-1-(7-37)-peptide] (H-HGEGTFTSDVSSYLEEQAAREFIAWLVRGK([AEEA-AEEA-γGlu-Undecanoyl(11-OPh(4-COOH))])K([AEEA-AEEA-γGlu-Undecanoyl(11-OPh(4-COOH))])-OH; N-terminus and C-terminus assumed) | 14 | 199 | – |
| CC[C@H](C)[C@H](NC(=O)[C@H](Cc1ccccc1)NC(=O)[C@H](CCC(=O)O)NC(=O)[C@H](CCCNC(=N)N)NC(=O)[C@H](C)NC(=O)[C@H](C)NC(=O)[C@H](CCC(N)=O)NC(=O)[C@H](CCC(=O)O)NC(=O)[C@H](CCC(=O)O)NC(=O)[C@H](CC(C)C)NC(=O)[C@H](Cc1ccc(O)cc1)NC(=O)[C@H](CO)NC(=O)[C@H](CO)NC(=O)[C@@H](NC(=O)[C@H](CC(=O)O)NC(=O)[C@H](CO)NC(=O)[C@@H](NC(=O)[C@H](Cc1ccccc1)NC(=O)[C@@H](NC(=O)CNC(=O)[C@H](CCC(=O)O)NC(=O)C(C)(C)NC(=O)[C@@H](N)Cc1c[nH]cn1)[C@@H](C)O)[C@@H](C)O)C(C)C)C(=O)N[C@@H](CCC(=O)O)C(=O)N[C@@H](Cc1c[nH]c2ccccc12)C(=O)N[C@@H](CC(C)C)C(=O)N[C@H](C(=O)N[C@@H](CCCNC(=N)N)C(=O)NCC(=O)N[C@@H](CCCCNC(=O)COCCOCCNC(=O)COCCOCCNC(=O)COCCOCCNC(=O)COCCOCCNC(=O)CC[C@H](NC(=O)CCCCCCCCCOc1cccc(C(=O)O)c1)C(=O)O)C(=O)N[C@@H](CCCCNC(=O)COCCOCCNC(=O)COCCOCCNC(=O)COCCOCCNC(=O)COCCOCCNC(=O)CC[C@H](NC(=O)CCCCCCCCCOc1cccc(C(=O)O)c1)C(=O)O)C(=O)O)C(C)C [Example 28] | 12 | 25 | – |
| H[Aib]EGTFTSDVSSYLEEQAAREFIAWLVRGK([AEEA-AEEA-AEEA-AEEA-γGlu-Decanoyl(10-O(3-COOH-Ph))])K([AEEA-AEEA-AEEA-AEEA-γGlu-Decanoyl(10-O(3-COOH-Ph))]) [GLP-1 derivative of Example 22] | – | – | IC50 (human GLP-1 receptor [2]): 45 nM; EC50/pM (0% HSA) (human GLP-1 receptor [3]): 1.8 pM; EC50/pM (1% HSA) (human GLP-1 receptor [3]): 7.7 pM |
| H[Aib]EGTFTSDVSSYLEEQAAREFIAWLVRGK([AEEA-AEEA-γGlu-γGlu-Undecanoyl(11-OPh(4-COOH))])K([AEEA-AEEA-γGlu-γGlu-Undecanoyl(11-OPh(4-COOH))]) [GLP-1 derivative of Example 18] | – | – | EC50/pM (0% HSA) (human GLP-1 receptor [3]): 0.8 pM; EC50/pM (1% HSA) (human GLP-1 receptor [3]): 29 pM |
